Experimental findings from patent US9650339B2, “Inhibitors of histone demethylases” (Gilead Sciences, Inc., priority 2013, dated 2017) are described below.

Broadly, the IC50 is the midpoint of a concentration-inhibition curve.

Test [1] concerns the target T1, KDM4C (JMJD2C) (Homo sapiens, UniProt Q9H3R0).
T1 sequence (Q9H3R0 1-349): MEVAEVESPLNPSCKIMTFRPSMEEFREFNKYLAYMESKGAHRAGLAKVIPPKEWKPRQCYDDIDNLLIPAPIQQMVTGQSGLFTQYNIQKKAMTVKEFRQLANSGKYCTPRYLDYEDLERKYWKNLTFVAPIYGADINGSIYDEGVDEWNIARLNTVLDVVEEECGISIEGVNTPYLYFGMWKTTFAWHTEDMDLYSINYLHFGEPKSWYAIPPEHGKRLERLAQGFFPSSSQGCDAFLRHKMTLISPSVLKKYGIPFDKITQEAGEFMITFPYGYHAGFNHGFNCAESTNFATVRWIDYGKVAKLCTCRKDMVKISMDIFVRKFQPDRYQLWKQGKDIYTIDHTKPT
The test can be described thus: Histone lysine demethylase AlphaLISA assay, KDM4C. It counts as biochemical. As to conditions: read-out: KDM4C HDME Inhibition IC50. The method in brief: (§1)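 Steps: enzyme equilibrated 10 min in buffer; compounds in 3% DMSO solution added, 10 min; substrate mix added (peptide, 25 μM L-Asc, 10 μM α-KG), room temperature; acceptor beads, then streptavidin donor beads, dark incubations; plate read.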
In general terms: Bead proximity is the source of the signal in Alpha formats.

Test [2] deals with T2, KDM5C (JARID1C) (Homo sapiens, UniProt P41229).
T2 construct: 2-1560; purchased BPS; host or cells: Bac (baculovirus system)
Kind of test: Histone lysine demethylase AlphaLISA assay, KDM5C. The note with it: read-out: KDM5C HDME Inhibition IC50. Type of test: biochemical. The method in brief:
as §1

Test [3] deals with T3, KDM7 (PHF8) (Homo sapiens, UniProt Q9UPP1).
T3 construct: KDM7 (PHF8); BRIC; 1-1322; Bac
Kind of test: Histone lysine demethylase AlphaLISA assay, KDM7. Type of test: biochemical. The note with it: read-out: PHF8 HDME Inhibition IC50. An outline of the steps: as §1

In test [4] the target is T4, KDM4C (Homo sapiens, UniProt Q9H3R0).
T4 construct: Full length; host or cells: U2OS
T4 sequence (Q9H3R0 1-1056): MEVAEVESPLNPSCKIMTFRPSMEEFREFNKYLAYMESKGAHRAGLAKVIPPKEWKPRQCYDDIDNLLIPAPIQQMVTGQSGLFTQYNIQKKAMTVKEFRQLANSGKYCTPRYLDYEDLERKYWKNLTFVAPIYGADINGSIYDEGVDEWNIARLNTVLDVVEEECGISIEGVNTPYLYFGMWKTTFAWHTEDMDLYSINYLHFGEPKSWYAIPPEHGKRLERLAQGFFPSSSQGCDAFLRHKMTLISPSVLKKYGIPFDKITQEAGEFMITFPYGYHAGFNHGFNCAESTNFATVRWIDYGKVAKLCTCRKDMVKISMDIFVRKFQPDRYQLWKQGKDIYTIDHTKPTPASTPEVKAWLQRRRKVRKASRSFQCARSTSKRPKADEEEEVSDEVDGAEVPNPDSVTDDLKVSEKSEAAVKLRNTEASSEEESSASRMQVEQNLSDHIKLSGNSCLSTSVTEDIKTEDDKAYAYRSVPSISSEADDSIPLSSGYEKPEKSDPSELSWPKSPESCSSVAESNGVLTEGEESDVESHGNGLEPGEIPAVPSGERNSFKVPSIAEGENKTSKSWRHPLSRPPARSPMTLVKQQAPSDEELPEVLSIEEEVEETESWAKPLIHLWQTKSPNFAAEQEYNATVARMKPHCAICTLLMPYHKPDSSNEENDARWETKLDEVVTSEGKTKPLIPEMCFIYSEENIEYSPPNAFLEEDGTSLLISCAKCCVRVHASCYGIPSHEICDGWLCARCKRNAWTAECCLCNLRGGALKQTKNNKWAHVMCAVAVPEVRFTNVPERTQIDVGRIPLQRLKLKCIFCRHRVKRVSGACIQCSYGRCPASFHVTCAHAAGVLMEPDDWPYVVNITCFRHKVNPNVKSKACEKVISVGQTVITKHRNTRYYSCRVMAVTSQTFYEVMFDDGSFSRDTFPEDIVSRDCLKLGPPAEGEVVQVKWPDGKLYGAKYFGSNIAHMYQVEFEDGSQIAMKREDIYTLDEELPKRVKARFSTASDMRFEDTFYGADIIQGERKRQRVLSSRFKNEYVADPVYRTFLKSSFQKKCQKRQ
The test can be described thus: Histone lysine demethylase immunofluorescence assay, U2OS cells transfected with KDM4C. Type of test: cell-based. The note with it: U2OS cells transfected with pCMVHA KDM4C; mark detected H3K9me3; 20 hours. The method in brief:
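U2OS cells were transiently transfected with HA-tagged demethylase and reseeded after 6 h into compound-containing DMEM/10% FBS for 20 h. Cells were fixed in formaldehyde and immunostained for HA and the relevant histone methyl mark, then imaged. IC50 is based on mean mark staining in HA+ transfected cells.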

T3 sequence (Q9UPP1 37-440 limits assumed): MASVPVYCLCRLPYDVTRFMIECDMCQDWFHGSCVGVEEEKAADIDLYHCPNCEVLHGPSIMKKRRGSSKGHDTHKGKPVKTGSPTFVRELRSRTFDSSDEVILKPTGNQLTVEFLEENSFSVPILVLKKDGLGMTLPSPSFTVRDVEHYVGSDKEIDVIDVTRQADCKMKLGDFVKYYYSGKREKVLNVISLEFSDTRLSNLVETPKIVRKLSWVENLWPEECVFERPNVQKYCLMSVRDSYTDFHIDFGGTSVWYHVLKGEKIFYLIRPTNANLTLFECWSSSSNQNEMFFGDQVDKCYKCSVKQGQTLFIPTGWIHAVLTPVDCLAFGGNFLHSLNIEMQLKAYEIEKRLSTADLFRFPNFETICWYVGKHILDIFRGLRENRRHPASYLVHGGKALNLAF
T2 sequence (P41229 2-1560): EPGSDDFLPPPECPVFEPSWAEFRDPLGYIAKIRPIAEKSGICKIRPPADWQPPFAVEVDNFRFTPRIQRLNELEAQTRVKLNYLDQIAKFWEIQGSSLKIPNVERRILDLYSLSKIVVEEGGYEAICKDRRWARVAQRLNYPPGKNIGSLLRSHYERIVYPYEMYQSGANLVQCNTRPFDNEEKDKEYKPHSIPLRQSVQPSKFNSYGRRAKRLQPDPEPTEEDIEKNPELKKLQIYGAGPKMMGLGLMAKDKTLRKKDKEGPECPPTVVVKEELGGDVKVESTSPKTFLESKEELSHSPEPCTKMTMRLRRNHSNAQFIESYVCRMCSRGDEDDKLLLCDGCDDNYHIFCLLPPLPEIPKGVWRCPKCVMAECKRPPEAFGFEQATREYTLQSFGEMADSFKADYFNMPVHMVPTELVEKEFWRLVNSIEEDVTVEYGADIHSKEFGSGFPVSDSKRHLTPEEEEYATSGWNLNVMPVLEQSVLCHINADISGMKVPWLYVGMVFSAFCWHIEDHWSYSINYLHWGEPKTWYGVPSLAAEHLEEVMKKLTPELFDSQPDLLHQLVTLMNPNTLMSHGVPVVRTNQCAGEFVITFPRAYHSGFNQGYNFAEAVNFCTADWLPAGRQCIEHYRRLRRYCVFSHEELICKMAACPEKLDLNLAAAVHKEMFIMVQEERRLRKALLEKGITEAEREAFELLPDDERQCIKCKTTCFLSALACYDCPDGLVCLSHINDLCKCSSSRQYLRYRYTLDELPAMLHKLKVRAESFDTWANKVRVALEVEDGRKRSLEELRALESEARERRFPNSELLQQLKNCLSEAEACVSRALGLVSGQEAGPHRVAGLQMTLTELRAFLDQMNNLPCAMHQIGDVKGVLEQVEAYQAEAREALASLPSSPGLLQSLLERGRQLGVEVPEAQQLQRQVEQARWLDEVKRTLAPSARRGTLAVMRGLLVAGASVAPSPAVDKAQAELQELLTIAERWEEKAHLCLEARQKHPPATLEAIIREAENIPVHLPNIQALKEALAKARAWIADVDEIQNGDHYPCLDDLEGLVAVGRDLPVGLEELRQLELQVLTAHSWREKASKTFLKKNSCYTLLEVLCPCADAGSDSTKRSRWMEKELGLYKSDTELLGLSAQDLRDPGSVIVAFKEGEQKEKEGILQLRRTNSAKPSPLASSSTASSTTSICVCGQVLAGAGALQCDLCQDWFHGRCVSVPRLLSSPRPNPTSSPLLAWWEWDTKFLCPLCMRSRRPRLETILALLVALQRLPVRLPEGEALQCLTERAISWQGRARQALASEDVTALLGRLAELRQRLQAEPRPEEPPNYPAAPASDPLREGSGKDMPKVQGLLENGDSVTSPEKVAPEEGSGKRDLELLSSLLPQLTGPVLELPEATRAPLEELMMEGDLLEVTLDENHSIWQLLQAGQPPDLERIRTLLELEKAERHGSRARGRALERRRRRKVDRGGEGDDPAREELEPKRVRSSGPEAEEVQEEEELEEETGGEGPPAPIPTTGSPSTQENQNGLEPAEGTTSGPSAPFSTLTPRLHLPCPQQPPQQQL

Take `CN(C)C(=O)CNCc1cc(CNCC#N)ccn1` [Compound 13, 2-{[(4-{[(cyanomethyl)amino]-methyl}pyridin-2-yl)methyl]amino}-N,N-dimethylacetamide]: the IC50 in test [1] was above 2500 nM; in test [2], above 2500 nM; in test [3], above 2500 nM; in test [4], 250 to 2500 nM.
With `CCN(CC)CCCCNC(=O)CNCc1cc(/C=N/C2CC2)ccn1` [Compound 48, 2-[({4-[N-cyclopropyl-carboximidoyl]pyridin-2-yl}methyl)amino]-N-[4-(diethylamino)-butyl]acetamide], the 50% inhibitory concentration (IC50) in test [1] is 250 to 2500 nM; in test [2], below 250 nM; in test [3] it was below 250 nM; in test [4], above 2500 nM.
Consider `CN1CCN(C(=O)CNCc2cc(/C=N/C3CC3)ccn2)CC1` [Compound 54, 2-[({4-[N-cyclopropyl-carboximidoyl]-pyridin-2-yl}methyl)amino]-1-(4-methylpiperazin-1-yl)ethan-1-one], for which the IC50 is 250 to 2500 nM in test [1], below 250 nM in test [2], above 2500 nM in test [3] and above 2500 nM in test [4].
For the compound `CN(C)CCNCc1cc(CNC(C#N)C2CC2)ccn1` (centres unmarked) [Compound 21, 2-cyclopropyl-2-({[2-({[2-(dimethylamino)ethyl]-amino}methyl)pyridin-4-yl]methyl}amino)-acetonitrile], the IC50 in test [1], in test [2], in test [3] and in test [4] was above 2500 nM in each case.
For `CN(C)C(=O)CNCc1cc(CNCCF)ccn1` [Compound 14, 2-{[(4-{[(2-fluoroethyl)amino]-methyl}pyridin-2-yl)methyl]amino}-N,N-dimethylacetamide], the IC50 is 250 to 2500 nM in test [1], 250 to 2500 nM in test [2], above 2500 nM in test [3] and above 2500 nM in test [4].
Turning to `C#CCN(C)C(=O)CNCc1cc(/C=N/C2CC2)ccn1` [Compound 56, 2-[({4-[N-cyclopropyl-carboximidoyl]-pyridin-2-yl}methyl)amino]-N-methyl-N-(prop-2-yn-1-yl)acetamide], the IC50 in test [1] was above 2500 nM; in test [2] it was 250 to 2500 nM; in test [3] it was 250 to 2500 nM; in test [4], above 2500 nM.
Turning to `CN(C)C/C=C/CNCc1cc(/C=N/C2CC2)ccn1` [Compound 43, N-{[2-({[(2E)-4-(dimethylamino)but-2-en-1-yl]amino}-methyl)pyridin-4-yl]methylidene}-cyclopropanamine], the half-maximal inhibitory concentration (IC50) in test [1] was below 250 nM; in test [2], below 250 nM; in test [3], 250 to 2500 nM; in test [4] it was 250 to 2500 nM.
As to `CCN1CCCC1CNC(=O)CNCc1cc(C=O)ccn1` (centres unmarked) [Compound 104, N-[(1-ethylpyrrolidin-2-yl)methyl]-2-{[(4-formylpyridin-2-yl)methyl]amino}-acetamide], the IC50 in test [1] was 250 to 2500 nM; in test [2], below 250 nM; in test [3], 250 to 2500 nM; in test [4], above 2500 nM.
Take `CCN(CCC#N)C(=O)CNCc1cc(/C=N/C2CC2)ccn1` [Compound 50, N-(2-cyanoethyl)-2-[({4-[N-cyclopropyl-carboximidoyl]-pyridin-2-yl}methyl)amino]-N-ethylacetamide]: the concentration for half-maximal inhibition (IC50) in test [1] is 250 to 2500 nM; in test [2], below 250 nM; in test [3], below 250 nM; in test [4], above 2500 nM.
On to `CN(C)CCCCCNCc1cc(C=O)ccn1` [Compound 114, 2-({[5-(dimethylamino)-pentyl]amino}methyl)-pyridine-4-carbaldehyde], for which the IC50 in test [1] is 250 to 2500 nM; in test [2], below 250 nM; in test [3], above 2500 nM; in test [4], above 2500 nM.
`CCN(CC)CCCCNCc1cc(/C=N/CC(F)(F)C(F)(F)F)ccn1` [Compound 62, {[2-({[4-(diethylamino)-butyl]amino}methyl)pyridin-4-yl]methylidene} (2,2,3,3,3-pentafluoropropyl)-amine]: the IC50 in test [1] was above 2500 nM; in test [2], below 250 nM; in test [3] it was above 2500 nM; in test [4], 250 to 2500 nM.
